Earlier results, collected in patent publication US20220273570A1, “Self-Microemulsifying Multi-Deliverable Systems” (Quicksilver Scientific, Inc., priority 2019, published 2022).
Read-outs that look alike come from different tables or passages of the source.

Columns and labels:
[1] = oral; extensively metabolized into glucuronide conjugate
[2] = rats, oral
[3] = up to
[4] = system: human hepatoma cell line (HepG2)

For `Oc1ccc(/C=C/c2cc(O)cc(O)c2)cc1` [resveratrol, 3,5,4′-trihydroxy-trans-stilbene], the bioavailability [1] is listed as “about 0.5%”.

In the case of `O=c1c(O)c(-c2ccc(O)c(O)c2)oc2cc(O)cc(O)c12` [quercetin], the elimination half-life (after oral ingestion of quercetin containing foods or supplements) is listed as 1 to 2 h and the bioavailability (humans, low and highly variable) is listed as 0-50%.

For `COc1cc(/C=C/C(=O)CC(=O)/C=C/c2ccc(O)c(OC)c2)ccc1O` [curcumin], the “bioavailability of orally administered solid curcumin powder” value [2] is given as 1%.

For `C[C@]12CC[C@H](O)CC1=CC[C@@H]1[C@@H]2CC[C@]2(C)C(=O)CC[C@@H]12` [DHEA], the “solubility in MCT oil” value ([3]; MCT oil) is given as “approximately 10 mg/mL” and the solubility in ethanol ([3]; ethanol) is given as “approximately 150 mg/mL”.

For `COc1cc(/C=C/C(=O)CC(=O)/C=C/c2ccc(O[C@@H]3O[C@H](C(=O)O)[C@@H](O)[C@H](O)[C@H]3O)c(OC)c2)ccc1O` [curcumin-glucuronide], the “effects on gene expression compared with free curcumin” value [4] is listed as “weaker”.
